Source: patent US20220211796A1, “PEPTIDE ANTIBIOTICS AND METHODS OF USE THEREOF” (priority 2019, published 2022)
≈ marks a conversion by molar mass, not a printed value. Numbered stars: 1 amine (or outer) side, 2 acyl side, 3 side chain; on linkers, the order of the positions; unused ones are H or OH. Bridge positions count the residues as written; N and C are the ends. Square brackets hold non-standard residues; d marks the D form. Peptide text beside a SMILES is read from it. TBMB = c1c(C[*:1])cc(C[*:3])cc1C[*:2]

Assays:
Experiment in all cases: microbe, parasite or virus in culture
B. subtilis ATCC 6633 = tested on: B. subtilis ATCC 6633
Description: (§1) The L-peptides identified from five different phage display libraries were catalogued as described previously and selected sequences were synthesized in D-enantiomeric form by SPPS for further investigation in several biological assays.
(§2) MICs were determined according to a 96-well microdilution protocol outlined by the Clinical and Laboratory Standard Institute (CLSI) guideline with modifications for peptide antibiotics reported by Wiegand et al.^35 Two-fold serial peptide dilutions were performed to go from 2560 μg/ml to 5 μg/ml in0.2% BSA and 0.01% acetic acid buffer in 96-well polypropylene plates (COSTAR, #3879). Dilution of bacterial suspensions (1:200) of different bacterial strains that were grown until 0.5 McFarland standard were prepared to obtain a final inoculum concentration of 8×10^5 CFU/ml in Mueller-Hinton broth.

E. coli ATCC 25992 = tested on: E. coli ATCC 25992
Description: as §1, §2

E. faecalis ATCC 29121 = tested on: E. faecalis ATCC 29121
Description: as §1, §2

[1] = tested on: Methicillin-resistant S. aureus (MRSA) ATCC 43300
Description: as §1, §2

S. aureus ATCC 6538 = tested on: S. aureus ATCC 6538
Description: as §1, §2

[2] = tested on: high level vancomycin resistant E. faecium (vanA) ATCC 51559
Description: as §1, §2

[3] = tested on: low level vancomycin resistant E. faecium (vanB) ATCC 51299
Description: as §1, §2

[4] = Table 5, low level vancomycin resistant E. faecium ATCC 51299
[5] = Table 6, high level vancomycin resistant E. faecium ATCC51559
[6] = Table 6, low level vancomycin resistant E. faecium ATCC51299

SMILES | MIC B. subtilis (B. subtilis ATCC 6633; ATCC 6633) | MIC E. coli (E. coli ATCC 25992; ATCC 25992) | MIC E. faecalis (E. faecalis ATCC 29121; ATCC 29121) | MIC MRSA ([1]; ATCC 43300) | MIC S. aureus (S. aureus ATCC 6538; ATCC 6538) | MIC VRE (vanA) ([2]; ATCC 51559) | MIC VRE (vanB) [3, 4] | further results
CC(C)C[C@@H](NC(=O)[C@H](NC(=O)[C@@H](Cc1ccc(O)cc1)NC(=O)[C@@H](CS)NC(=O)[C@@H](CS)NC(=O)[C@H](N)CCCCN)[C@H](C)O)C(=O)N1CCC[C@@H]1C(N)=O [P5, KCCYTLP] (H-[dK][dC][dC][dY][dT][dL][dP]-NH2) | 128 µg/mL (≈ 155 µM) | >256 µg/mL | >256 µg/mL | >256 µg/mL | 128 µg/mL (≈ 155 µM) | >256 µg/mL | >256 µg/mL | 
CC[C@@H](C)[C@@H](NC(=O)[C@@H](Cc1ccc(O)cc1)NC(=O)[C@H](N)Cc1c[nH]cn1)C(=O)N[C@H](CC(=O)O)C(=O)N[C@H](Cc1ccccc1)C(=O)N[C@H](CCCNC(=N)N)C(=O)N[C@H](Cc1c[nH]c2ccccc12)C(N)=O [P8, HYIDFRW] (H-[dH][dY][dI][dD][dF][dR][dW]-NH2) | 32 µg/mL (≈ 30.9 µM) | >256 µg/mL | 64 µg/mL (≈ 61.8 µM) | 64 µg/mL (≈ 61.8 µM) |  | >256 µg/mL | >256 µg/mL | 
CC(C)C[C@@H](NC(=O)[C@@H](CC(N)=O)NC(=O)[C@@H](CO)NC(=O)CNC(=O)[C@H](N)C(C)C)C(=O)N[C@H](CCCNC(=N)N)C(=O)N[C@H](CC(C)C)C(=O)N[C@H](CC(C)C)C(=O)N[C@H](Cc1c[nH]cn1)C(=O)N[C@H](CCC(N)=O)C(=O)N[C@H](Cc1c[nH]c2ccccc12)C(=O)N[C@H](CCCCN)C(N)=O [P3, VGSNLRLLHQWK] (H-[dV]G[dS][dN][dL][dR][dL][dL][dH][dQ][dW][dK]-NH2) | 32 µg/mL (≈ 22.1 µM) | >256 µg/mL | 32 µg/mL (≈ 22.1 µM) | 64 µg/mL (≈ 44.1 µM) | 32 µg/mL (≈ 22.1 µM) | >256 µg/mL | >256 µg/mL | 
CC(C)C[C@H]1NC(=O)[C@H](N)CSSC[C@H](C(N)=O)NC(=O)[C@@H]([C@H](C)O)NC(=O)[C@@H](C)NC(=O)CNC(=O)[C@@H]([C@H](C)O)NC(=O)[C@@H](CO)NC(=O)[C@@H](Cc2c[nH]c3ccccc23)NC1=O [P12, CLWSTGATC] (H-[dC][dL][dW][dS][dT]G[dA][dT][dC]-NH2; disulfide 1-9) | 64 µg/mL (≈ 68.2 µM) | >256 µg/mL | 128 µg/mL (≈ 136 µM) | 64 µg/mL (≈ 68.2 µM) | 64 µg/mL (≈ 68.2 µM) | >256 µg/mL | >256 µg/mL | 
CSCC[C@H]1NC(=O)[C@H]2CCCN2C(=O)[C@@H]([C@H](C)O)NC(=O)[C@@H](C)NC(=O)CNC(=O)[C@@H](CCCNC(=N)N)NC(=O)[C@H](N)CSSC[C@H](C(N)=O)NC(=O)[C@@H](CO)NC1=O [P10, CRGATPMSC] (H-[dC][dR]G[dA][dT][dP][dM][dS][dC]-NH2; disulfide 1-9) |  |  |  |  |  |  | >256 µg/mL | MIC B. subtilis (B. subtilis ATCC 6633; Table 5, B. subtilis ATCC 6633): 128 µg/mL (≈ 139 µM); MIC E. coli (E. coli ATCC 25992; Table 5, E. coli ATCC 25992): >256 µg/mL; MIC E. faecalis (E. faecalis ATCC 29121; Table 5, E. faecalis ATCC 29121): 256 µg/mL (≈ 278 µM); MIC MRSA ([1]; Table 5, MRSA ATCC 43300): 128 µg/mL (≈ 139 µM); MIC S. aureus (S. aureus ATCC 6538; Table 5, S. aureus ATCC 6538): 128 µg/mL (≈ 139 µM); MIC VRE (vanA) ([2]; Table 5, high level vancomycin resistant E. faecium ATCC 51559): >256 µg/mL
CC[C@@H](C)[C@H]1NC(=O)[C@@H](CC(N)=O)NC(=O)[C@@H](CC(=O)O)NC(=O)[C@H](N)CSSC[C@H](C(N)=O)NC(=O)[C@@H](C(C)C)NC(=O)[C@H]2CCCN2C(=O)[C@@H]([C@H](C)O)NC(=O)[C@@H](CCSC)NC1=O [P13, CDNIMTPVC] (H-[dC][dD][dN][dI][dM][dT][dP][dV][dC]-NH2; disulfide 1-9) | 64 µg/mL (≈ 64.5 µM) | >256 µg/mL | 128 µg/mL (≈ 129 µM) | 64 µg/mL (≈ 64.5 µM) | 64 µg/mL (≈ 64.5 µM) | >256 µg/mL | >256 µg/mL | 
CC(C)C[C@H]1NC(=O)[C@H](N)CSSC[C@H](C(N)=O)NC(=O)[C@@H](Cc2c[nH]c3ccccc23)NC(=O)[C@@H](CCCCN)NC(=O)[C@@H](CCC(=O)O)NC(=O)CNC(=O)[C@@H](CC(C)C)NC(=O)[C@@H](CCCCN)NC1=O [P9, CLKLGEKWC] (H-[dC][dL][dK][dL]G[dE][dK][dW][dC]-NH2; disulfide 1-9) | 32 µg/mL (≈ 29.7 µM) | >256 µg/mL | 64 µg/mL (≈ 59.5 µM) | 64 µg/mL (≈ 59.5 µM) | 64 µg/mL (≈ 59.5 µM) | >256 µg/mL | >256 µg/mL | 
CC[C@@H](C)[C@H]1NC(=O)[C@@H](CO)NC(=O)[C@H](N)CSSC[C@H](C(N)=O)NC(=O)[C@@H](Cc2c[nH]cn2)NC(=O)[C@@H]([C@H](C)O)NC(=O)[C@@H](CC(C)C)NC(=O)[C@@H](CO)NC(=O)[C@@H](CO)NC1=O [P11, CSISSLTHC] (H-[dC][dS][dI][dS][dS][dL][dT][dH][dC]-NH2; disulfide 1-9) | 32 µg/mL (≈ 33.8 µM) | >256 µg/mL | 32 µg/mL (≈ 33.8 µM) | 64 µg/mL (≈ 67.6 µM) | 32 µg/mL (≈ 33.8 µM) | >256 µg/mL | 64 µg/mL (≈ 67.6 µM) | 
CC(C)[C@H]1NC(=O)CNC(=O)[C@@H](Cc2ccccc2)NC(=O)[C@H]2CSCc3cc(cc(c3)CSC[C@H](C(N)=O)NC(=O)[C@@H](CO)NC(=O)[C@@H](CCC(N)=O)NC1=O)CSC[C@@H](N)C(=O)NCC(=O)N[C@H](C)C(=O)N[C@H](CCC(N)=O)C(=O)NCC(=O)N2 [P20, CGAQGCFGVQSC] (H-[dC]G[dA][dQ]G[dC][dF]G[dV][dQ][dS][dC]-NH2; linker 1-6-12 via TBMB) |  |  |  |  |  |  |  | MIC B. subtilis (B. subtilis ATCC 6633; Table 6, B. subtilis ATCC6633): 32 µg/mL (≈ 25.1 µM); MIC E. coli (E. coli ATCC 25992; Table 6, E. Coli ATCC25992): >256 µg/mL; MIC E. faecalis (E. faecalis ATCC 29121; Table 6, E. faecalis ATCC29121): 256 µg/mL (≈ 201 µM); MIC MRSA ([1]; Table 6, MRSA ATCC43300): 256 µg/mL (≈ 201 µM); MIC S. aureus (S. aureus ATCC 6538; Table 6, S. aureus ATCC6538): 32 µg/mL (≈ 25.1 µM); MIC VRE (vanA) [2, 5]: >256 µg/mL; MIC VRE (vanB) [3, 6]: 256 µg/mL (≈ 201 µM)
CC(C)[C@@H](N)C(=O)N[C@H](Cc1c[nH]cn1)C(=O)N[C@H](Cc1c[nH]c2ccccc12)C(=O)N[C@H](CC(=O)O)C(=O)N[C@H](Cc1ccccc1)C(=O)N[C@H](CCCNC(=N)N)C(=O)N[C@H](CCC(N)=O)C(=O)N[C@H](Cc1c[nH]c2ccccc12)C(=O)N[C@H](Cc1c[nH]c2ccccc12)C(=O)N[C@H](CCC(N)=O)C(=O)N1CCC[C@@H]1C(=O)N[C@H](CO)C(N)=O [P4, VHWDFRQWWQPS] (H-[dV][dH][dW][dD][dF][dR][dQ][dW][dW][dQ][dP][dS]-NH2) | 32 µg/mL (≈ 19.2 µM) | >256 µg/mL | 32 µg/mL (≈ 19.2 µM) | 64 µg/mL (≈ 38.3 µM) | 32 µg/mL (≈ 19.2 µM) | >256 µg/mL | 128 µg/mL (≈ 76.6 µM) | 
CC(C)C[C@@H](NC(=O)[C@@H](Cc1ccccc1)NC(=O)CNC(=O)[C@H](N)[C@H](C)O)C(=O)N[C@@H](C(=O)N[C@H](CC(N)=O)C(=O)N[C@@H](C(N)=O)C(C)C)C(C)C [P7, TGFLVNV] (H-[dT]G[dF][dL][dV][dN][dV]-NH2) | 32 µg/mL (≈ 42.8 µM) | >256 µg/mL | >256 µg/mL | >256 µg/mL | 64 µg/mL (≈ 85.6 µM) | >256 µg/mL | >256 µg/mL | 
CC[C@@H](C)[C@H]1NC(=O)[C@@H](C(C)C)NC(=O)[C@H]2CSCc3cc(cc(c3)CSC[C@H](C(N)=O)NC(=O)[C@@H](CC(=O)O)NC1=O)CSC[C@@H](N)C(=O)N[C@H](CC(C)C)C(=O)N[C@H](CO)C(=O)N[C@H](CCC(N)=O)C(=O)N[C@H](Cc1ccccc1)C(=O)N2 [P17, CLSQFCVIDC] (H-[dC][dL][dS][dQ][dF][dC][dV][dI][dD][dC]-NH2; linker 1-6-10 via TBMB) |  |  |  |  |  |  |  | MIC B. subtilis (B. subtilis ATCC 6633; Table 6, B. subtilis ATCC6633): 128 µg/mL (≈ 103 µM); MIC E. coli (E. coli ATCC 25992; Table 6, E. Coli ATCC25992): >256 µg/mL; MIC E. faecalis (E. faecalis ATCC 29121; Table 6, E. faecalis ATCC29121): >256 µg/mL; MIC MRSA ([1]; Table 6, MRSA ATCC43300): >256 µg/mL; MIC S. aureus (S. aureus ATCC 6538; Table 6, S. aureus ATCC6538): 128 µg/mL (≈ 103 µM); MIC VRE (vanA) [2, 5]: >256 µg/mL; MIC VRE (vanB) [3, 6]: >256 µg/mL
CC(C)C[C@H]1NC(=O)[C@@H](CCC(N)=O)NC(=O)[C@@H](CO)NC(=O)[C@@H](CO)NC(=O)[C@@H](CO)NC(=O)[C@H]2CSCc3cc(cc(c3)CSC[C@H](C(N)=O)NC(=O)[C@@H](Cc3ccc(O)cc3)NC1=O)CSC[C@@H](N)C(=O)N[C@H]([C@H](C)O)C(=O)N[C@H](CCCNC(=N)N)C(=O)N[C@H](C(C)C)C(=O)N2 [P19, CTRVCSSSQLYC] (H-[dC][dT][dR][dV][dC][dS][dS][dS][dQ][dL][dY][dC]-NH2; linker 1-5-12 via TBMB) |  |  |  |  |  |  |  | MIC B. subtilis (B. subtilis ATCC 6633; Table 6, B. subtilis ATCC6633): 128 µg/mL (≈ 87.5 µM); MIC E. coli (E. coli ATCC 25992; Table 6, E. Coli ATCC25992): >256 µg/mL; MIC E. faecalis (E. faecalis ATCC 29121; Table 6, E. faecalis ATCC29121): >256 µg/mL; MIC MRSA ([1]; Table 6, MRSA ATCC43300): >256 µg/mL; MIC S. aureus (S. aureus ATCC 6538; Table 6, S. aureus ATCC6538): 128 µg/mL (≈ 87.5 µM); MIC VRE (vanA) [2, 5]: >256 µg/mL; MIC VRE (vanB) [3, 6]: >256 µg/mL
